Literature values, collected in US20250340636A1, “ANTIBODIES TARGETING L1CAM AND USES THEREOF” (MEMORIAL SLOAN-KETTERING CANCER CENTER, priority 2023, published 2025).

Conditions: free drug, mice (Quintieri et al. 2005); cited from earlier work

In the case of COc1cccc2c1C(=O)c1c(O)c3c(c(O)c1C2=O)C[C@@](O)(C(=O)CO)C[C@@H]3O[C@H]1C[C@H]2[C@H](O[C@@H]3[C@@H](OC)OCCN32)[C@H](C)O1 [PNU-159682], the maximum tolerated dose is listed as 0.015 mg/kg.
